In paper PMC5218480 (PLoS ONE, 2017):

Test system: MV-4-11 cells
Experiment: Gene expression microarray analysis (Affymetrix PrimeView) and GSEA
Format: cell-based, human
Design: RFU PODN (11730768_x_at) / Fold change /veh PODN (11730768_x_at) / RFU LINC00158 (11744669_a_at) / Fold change /veh LINC00158 (11744669_a_at) / RFU DUSP10 (11751237_a_at) / Fold change /veh DUSP10 (11751237_a_at) / RFU ID3 (11757404_x_at) / Fold change /veh ID3 (11757404_x_at) / RFU PLEKHG5 (11737974_s_at) / Fold change /veh PLEKHG5 (11737974_s_at) / RFU LRRC4B (11730491_at) / Fold change /veh LRRC4B (11730491_at) / RFU GIMAP4 (11747438_a_at) / Fold change /veh GIMAP4 (11747438_a_at) / RFU KRT8 (11758183_x_at) / Fold change /veh KRT8 (11758183_x_at) / RFU CNN1 (11734310_a_at) / Fold change /veh CNN1 (11734310_a_at) / RFU VPS37D (11726825_at) / Fold change /veh VPS37D (11726825_at) / RFU C10orf10 (11716522_x_at) / Fold change /veh C10orf10 (11716522_x_at) / RFU KIR2DL2 /// KIR2DL4 /// KIR2DL5A /// KIR2DL5B /// KIR2DS1 /// KIR2DS2 /// KIR2DS3 /// KIR2DS4 /// KIR3DL3 /// KIR3DL3 /// KIR3DS1 (11738374_at) / Fold change /veh KIR2DL2 /// KIR2DL4 /// KIR2DL5A /// KIR2DL5B /// KIR2DS1 /// KIR2DS2 /// KIR2DS3 /// KIR2DS4 /// KIR3DL3 /// KIR3DL3 /// KIR3DS1 (11738374_at) / RFU C1QL1 (11718748_at) / Fold change /veh C1QL1 (11718748_at) / RFU TMPRSS4 (11747572_a_at) / Fold change /veh TMPRSS4 (11747572_a_at) / RFU HAMP (11756126_x_at) / Fold change /veh HAMP (11756126_x_at) / RFU RNFT2 (11725882_a_at) / Fold change /veh RNFT2 (11725882_a_at) / RFU NR4A2 (11747474_a_at) / Fold change /veh NR4A2 (11747474_a_at) / RFU ABCC12 (11746883_a_at) / Fold change /veh ABCC12 (11746883_a_at) / RFU TMEM136 (11760407_x_at) / Fold change /veh TMEM136 (11760407_x_at) / RFU CLDN22 /// WWC2 (11732394_at) / Fold change /veh CLDN22 /// WWC2 (11732394_at) / RFU HLA-DPB1 (11760878_x_at) / Fold change /veh HLA-DPB1 (11760878_x_at) / RFU SPINT1 (11716480_a_at) / Fold change /veh SPINT1 (11716480_a_at) / RFU GAP43 (11754022_s_at) / Fold change /veh GAP43 (11754022_s_at) / RFU A4GNT (11735810_at) / Fold change /veh A4GNT (11735810_at) / RFU PRB3 (11715151_x_at) / Fold change /veh PRB3 (11715151_x_at) / RFU TUBB4B (11761932_at) / Fold change /veh TUBB4B (11761932_at) / RFU CAPN14 (11732068_a_at) / Fold change /veh CAPN14 (11732068_a_at) / RFU TMCC2 (11721928_a_at) / Fold change /veh TMCC2 (11721928_a_at) / RFU IRGQ (11745062_a_at) / Fold change /veh IRGQ (11745062_a_at) / RFU FAM174B (11720279_a_at) / Fold change /veh FAM174B (11720279_a_at) / RFU TMPRSS4 (11748680_a_at) / Fold change /veh TMPRSS4 (11748680_a_at) / RFU FAM212B (11763350_a_at) / Fold change /veh FAM212B (11763350_a_at) / RFU PLEKHG5 (11743358_a_at) / Fold change /veh PLEKHG5 (11743358_a_at) / RFU ZSCAN30 (11745921_a_at) / Fold change /veh ZSCAN30 (11745921_a_at) / RFU CMKLR1 (11741424_a_at) / Fold change /veh CMKLR1 (11741424_a_at) / RFU LOC101060620 /// MAPK8IP1 (11723275_at) / Fold change /veh LOC101060620 /// MAPK8IP1 (11723275_at) / RFU SPTSSB (11747773_x_at) / Fold change /veh SPTSSB (11747773_x_at) / RFU PRSS12 (11739890_at) / Fold change /veh PRSS12 (11739890_at) / RFU BIN1 (11741810_x_at) / Fold change /veh BIN1 (11741810_x_at) / RFU WNT11 (11732464_a_at) / Fold change /veh WNT11 (11732464_a_at) / RFU C10orf10 (11716521_a_at) / Fold change /veh C10orf10 (11716521_a_at) / RFU C5orf56 (11738089_at) / Fold change /veh C5orf56 (11738089_at) / RFU CYB561 (11721691_x_at) / Fold change /veh CYB561 (11721691_x_at) / RFU ANKRD19P (11752326_a_at) / Fold change /veh ANKRD19P (11752326_a_at) / RFU OR2T12 /// OR2T33 /// OR2T8 (11738714_s_at) / Fold change /veh OR2T12 /// OR2T33 /// OR2T8 (11738714_s_at) / RFU VCAN (11748164_a_at) / Fold change /veh VCAN (11748164_a_at) / RFU JSRP1 (11732532_at) / Fold change /veh JSRP1 (11732532_at) / RFU KRTAP10-11 (11738290_x_at) / Fold change /veh KRTAP10-11 (11738290_x_at) / RFU MYO3A (11730013_a_at) / Fold change /veh MYO3A (11730013_a_at) / RFU EBF3 (11725865_a_at) / Fold change /veh EBF3 (11725865_a_at) / RFU CAMK2N1 (11719241_x_at) / Fold change /veh CAMK2N1 (11719241_x_at) / RFU C5orf56 (11738088_a_at) / Fold change /veh C5orf56 (11738088_a_at) / RFU OLFML3 (11715873_a_at) / Fold change /veh OLFML3 (11715873_a_at) / RFU LOC100653217 /// NTM (11731650_a_at) / Fold change /veh LOC100653217 /// NTM (11731650_a_at) / RFU MAPK11 (11762145_a_at) / Fold change /veh MAPK11 (11762145_a_at) / RFU FIZ1 (11724087_x_at) / Fold change /veh FIZ1 (11724087_x_at) / RFU OASL (11726364_x_at) / Fold change /veh OASL (11726364_x_at) / RFU SOX15 (11748057_x_at) / Fold change /veh SOX15 (11748057_x_at) / RFU CD79A (11719716_a_at) / Fold change /veh CD79A (11719716_a_at) / RFU HIST1H1D (11736915_at) / Fold change /veh HIST1H1D (11736915_at) / RFU CASKIN2 (11723855_a_at) / Fold change /veh CASKIN2 (11723855_a_at) / RFU LOC730098 (11760151_x_at) / Fold change /veh LOC730098 (11760151_x_at) / RFU OR4N2 (11742367_at) / Fold change /veh OR4N2 (11742367_at) / RFU PRRT2 (11749266_a_at) / Fold change /veh PRRT2 (11749266_a_at) / RFU SNX32 (11753110_a_at) / Fold change /veh SNX32 (11753110_a_at) / RFU CDHR5 (11726645_a_at) / Fold change /veh CDHR5 (11726645_a_at) / RFU RCAN1 (11760418_a_at) / Fold change /veh RCAN1 (11760418_a_at) / RFU FAM167A (11723789_a_at) / Fold change /veh FAM167A (11723789_a_at) / RFU FAM26E (11764081_at) / Fold change /veh FAM26E (11764081_at) / RFU ISYNA1 (11749810_s_at) / Fold change /veh ISYNA1 (11749810_s_at) / RFU ACY1 (11761880_at) / Fold change /veh ACY1 (11761880_at) / RFU 11764098_at / Fold change /veh 11764098_at / RFU SAMD14 (11745864_x_at) / Fold change /veh SAMD14 (11745864_x_at) / RFU NPB (11741838_a_at) / Fold change /veh NPB (11741838_a_at) / RFU TMPRSS6 (11731388_a_at) / Fold change /veh TMPRSS6 (11731388_a_at) / RFU KRTAP10-2 (11738614_at) / Fold change /veh KRTAP10-2 (11738614_at) / RFU ARHGAP8 /// PRR5-ARHGAP8 (11727945_x_at) / Fold change /veh ARHGAP8 /// PRR5-ARHGAP8 (11727945_x_at) / RFU KRTAP5-7 /// NADSYN1 (11734609_at) / Fold change /veh KRTAP5-7 /// NADSYN1 (11734609_at) / RFU RASL12 (11751679_a_at) / Fold change /veh RASL12 (11751679_a_at) / RFU CDKN2B (11736163_a_at) / Fold change /veh CDKN2B (11736163_a_at) / RFU PRF1 (11729649_at) / Fold change /veh PRF1 (11729649_at) / RFU, ZNF638 /// ZNF638-IT1 / Fold change vs veh, ZNF638 /// ZNF638-IT1 / RFU, PANK3 / Fold change vs veh, PANK3 / RFU, SH3YL1 / Fold change vs veh, SH3YL1 / RFU, ZEB2 / Fold change vs veh, ZEB2 / RFU, NRIP1 / Fold change vs veh, NRIP1 / RFU, PTTG1IP / Fold change vs veh, PTTG1IP / RFU, CAPN2 / Fold change vs veh, CAPN2 / RFU, MED14 / Fold change vs veh, MED14 / RFU, SNORA58 / Fold change vs veh, SNORA58 / RFU, C1orf63 / Fold change vs veh, C1orf63 / RFU, LRRFIP1 / Fold change vs veh, LRRFIP1 / RFU, NDUFAF7 / Fold change vs veh, NDUFAF7 / RFU, SLC12A2 / Fold change vs veh, SLC12A2 / RFU, IBTK / Fold change vs veh, IBTK / RFU, ESF1 / Fold change vs veh, ESF1 / Fold change vs veh, TMEM50B / RFU, TAOK1 / Fold change vs veh, TAOK1 / RFU, ACBD3 / Fold change vs veh, ACBD3 / RFU, TMA16 / Fold change vs veh, TMA16 / RFU, RWDD3 / Fold change vs veh, RWDD3 / RFU, BCAT1 / Fold change vs veh, BCAT1 / RFU, EDEM3 / Fold change vs veh, EDEM3 / RFU, TMEM33 / Fold change vs veh, TMEM33 / RFU, WDR75 / Fold change vs veh, WDR75 / RFU, AHCTF1 / Fold change vs veh, AHCTF1 / RFU, TFRC / Fold change vs veh, TFRC / RFU, ZDHHC17 / Fold change vs veh, ZDHHC17 / RFU, NOM1 / Fold change vs veh, NOM1 / RFU, ARL8B / Fold change vs veh, ARL8B / RFU, ZBTB11 / Fold change vs veh, ZBTB11 / RFU, TAMM41 / Fold change vs veh, TAMM41 / RFU, KIAA1704 /// LOC100996395 / Fold change vs veh, KIAA1704 /// LOC100996395 / RFU, ING1 / Fold change vs veh, ING1 / RFU, TRMT61B / Fold change vs veh, TRMT61B / RFU, FUBP3 / Fold change vs veh, FUBP3 / RFU, TP53 / Fold change vs veh, TP53 / RFU, TNKS2 / Fold change vs veh, TNKS2 / RFU, ZFP14 / Fold change vs veh, ZFP14 / RFU, ACTR2 / Fold change vs veh, ACTR2 / RFU, PPP3R1 / Fold change vs veh, PPP3R1 / RFU, PIK3R1 / Fold change vs veh, PIK3R1 / RFU, HNRNPA1 / Fold change vs veh, HNRNPA1 / RFU, RNF170 / Fold change vs veh, RNF170 / RFU, ZNF28 / Fold change vs veh, ZNF28 / RFU, RNGTT / Fold change vs veh, RNGTT / RFU, OGT / Fold change vs veh, OGT / RFU, BRD1 / Fold change vs veh, BRD1 / RFU, MARS / Fold change vs veh, MARS / RFU, ZNF655 / Fold change vs veh, ZNF655 / RFU, FAHD1 / Fold change vs veh, FAHD1 / RFU, BDP1 / Fold change vs veh, BDP1 / RFU, LRRCC1 / Fold change vs veh, LRRCC1 / RFU, ARID1A / Fold change vs veh, ARID1A / RFU, ZNF146 / Fold change vs veh, ZNF146 / RFU, ZNF330 / Fold change vs veh, ZNF330 / RFU, GPN3 / Fold change vs veh, GPN3 / RFU, C9orf123 / Fold change vs veh, C9orf123 / RFU, N4BP2L2 / Fold change vs veh, N4BP2L2 / RFU, ARFIP1 / Fold change vs veh, ARFIP1 / RFU, FAM179B / Fold change vs veh, FAM179B / RFU, BCL10 / Fold change vs veh, BCL10 / RFU, UHRF1BP1L / Fold change vs veh, UHRF1BP1L / RFU, BET1 / Fold change vs veh, BET1 / RFU, CNOT2 / Fold change vs veh, CNOT2 / RFU, ZNF268 / Fold change vs veh, ZNF268 / Fold change vs veh, ZNF507 / RFU, DGCR2 / Fold change vs veh, DGCR2 / RFU, WDSUB1 / Fold change vs veh, WDSUB1 / Fold change vs veh, HSP90B1 /// MIR3652 / RFU, ADSS / Fold change vs veh, ADSS / RFU, GK / Fold change vs veh, GK / RFU, ZNF148 / Fold change vs veh, ZNF148 / RFU, TAF9 / Fold change vs veh, TAF9 / RFU, SLC1A5 / Fold change vs veh, SLC1A5 / RFU, SLMO2 / Fold change vs veh, SLMO2 / RFU, ABCC4 / Fold change vs veh, ABCC4 / RFU, LOC101060439 /// RAP1B / Fold change vs veh, LOC101060439 /// RAP1B / RFU, RFX7 / Fold change vs veh, RFX7 / RFU, GTPBP10 / Fold change vs veh, GTPBP10 / RFU, CNEP1R1 / Fold change vs veh, CNEP1R1 / RFU, BIVM-ERCC5 /// ERCC5 / Fold change vs veh, BIVM-ERCC5 /// ERCC5 / RFU, ILF3 / Fold change vs veh, ILF3 / RFU 11762660_at / Fold change /veh 11762660_at / RFU VCAN (11757783_s_at) / Fold change /veh VCAN (11757783_s_at) / RFU DDX43 (11728927_at) / Fold change /veh DDX43 (11728927_at) / RFU KRT8 (11758188_x_at) / Fold change /veh KRT8 (11758188_x_at) / RFU NKD1 (11759106_at) / Fold change /veh NKD1 (11759106_at) / RFU SRD5A1 (11742802_a_at) / Fold change /veh SRD5A1 (11742802_a_at) / RFU TPSAB1 /// TPSB2 (11721975_s_at) / Fold change /veh TPSAB1 /// TPSB2 (11721975_s_at) / RFU GSTM3 (11746129_a_at) / Fold change /veh GSTM3 (11746129_a_at) / RFU IL23R (11737362_x_at) / Fold change /veh IL23R (11737362_x_at) / RFU TMEM51 (11727254_a_at) / Fold change /veh TMEM51 (11727254_a_at) / RFU PIWIL2 (11732686_x_at) / Fold change /veh PIWIL2 (11732686_x_at) / RFU ORM1 (11744905_x_at) / Fold change /veh ORM1 (11744905_x_at) / RFU CCDC152 (11743942_at) / Fold change /veh CCDC152 (11743942_at) / RFU ECM1 (11717891_a_at) / Fold change /veh ECM1 (11717891_a_at) / RFU IL23R (11748794_a_at) / Fold change /veh IL23R (11748794_a_at) / RFU TNFAIP8L3 (11732012_x_at) / Fold change /veh TNFAIP8L3 (11732012_x_at) / RFU MBOAT4 (11741988_at) / Fold change /veh MBOAT4 (11741988_at) / RFU 11764193_at / Fold change /veh 11764193_at / RFU TMEM53 (11763286_at) / Fold change /veh TMEM53 (11763286_at) / RFU MAGEB2 (11727129_at) / Fold change /veh MAGEB2 (11727129_at) / RFU TMEM200A (11744735_a_at) / Fold change /veh TMEM200A (11744735_a_at) / RFU CCDC152 (11751479_a_at) / Fold change /veh CCDC152 (11751479_a_at) / RFU FAM211A (11726209_a_at) / Fold change /veh FAM211A (11726209_a_at) / RFU RGS16 (11746705_a_at) / Fold change /veh RGS16 (11746705_a_at) / RFU VCAN (11755009_s_at) / Fold change /veh VCAN (11755009_s_at) / RFU RHOB (11743442_s_at) / Fold change /veh RHOB (11743442_s_at) / RFU RGS16 (11720943_a_at) / Fold change /veh RGS16 (11720943_a_at) / RFU RGS16 (11720944_at) / Fold change /veh RGS16 (11720944_at) / RFU, VPS4B / Fold change vs veh, VPS4B / RFU, CREB1 / Fold change vs veh, CREB1 / RFU, DNAJC13 / Fold change vs veh, DNAJC13 / RFU, GNAQ / Fold change vs veh, GNAQ / RFU, CDK5R1 / Fold change vs veh, CDK5R1 / RFU, ZRANB3 / Fold change vs veh, ZRANB3 / RFU, CUL4A / Fold change vs veh, CUL4A / RFU, CCNY / Fold change vs veh, CCNY / RFU, UFL1 / Fold change vs veh, UFL1 / RFU, COG3 / Fold change vs veh, COG3 / RFU, DIAPH2 / Fold change vs veh, DIAPH2 / RFU, SKA2 / Fold change vs veh, SKA2 / RFU, AFF3 / Fold change vs veh, AFF3 / RFU, LMF1 / Fold change vs veh, LMF1 / RFU, IPO11 / Fold change vs veh, IPO11 / RFU, DFFB / Fold change vs veh, DFFB / RFU, FOXP1 / Fold change vs veh, FOXP1 / RFU, CARD8 / Fold change vs veh, CARD8 / RFU, STRN3 / Fold change vs veh, STRN3 / RFU, ADK / Fold change vs veh, ADK / RFU, RASSF2 / Fold change vs veh, RASSF2 / RFU, WIPF1 / Fold change vs veh, WIPF1 / RFU, LARP1B / Fold change vs veh, LARP1B / RFU, RASA1 / Fold change vs veh, RASA1 / RFU, RB1 / Fold change vs veh, RB1 / RFU, PPFIA1 / Fold change vs veh, PPFIA1 / RFU, MAT2A / Fold change vs veh, MAT2A / RFU, CCT5 / Fold change vs veh, CCT5 / RFU, WDR92 / Fold change vs veh, WDR92 / RFU, CUX1 / Fold change vs veh, CUX1 / RFU, TTC7A / Fold change vs veh, TTC7A / RFU, TMEM135 / Fold change vs veh, TMEM135 / RFU, DEPTOR / Fold change vs veh, DEPTOR / RFU, CPM / Fold change vs veh, CPM / RFU, DNAJB6 / Fold change vs veh, DNAJB6 / RFU, CACNA2D3 / Fold change vs veh, CACNA2D3 / RFU, DTX4 / Fold change vs veh, DTX4 / RFU, TFCP2 / Fold change vs veh, TFCP2 / RFU, GMCL1 /// GMCL1P1 / Fold change vs veh, GMCL1 /// GMCL1P1 / RFU, AEBP2 / Fold change vs veh, AEBP2 / RFU, SNHG1 /// SNORD22 /// SNORD25 /// SNORD26 /// SNORD27 /// SNORD28 /// SNORD29 /// SNORD31 / Fold change vs veh, SNHG1 /// SNORD22 /// SNORD25 /// SNORD26 /// SNORD27 /// SNORD28 /// SNORD29 /// SNORD31 / Fold change (Aza/veh), C12orf56 (ProbeSet 11735607_a_at) / Fold change (ACY-1035/veh), C12orf56 (ProbeSet 11735607_a_at) / Fold change (Aza/veh), FGFR1OP (ProbeSet 11751329_s_at) / Fold change (ACY-1035/veh), FGFR1OP (ProbeSet 11751329_s_at) / Fold change (Aza/veh), VPS36 (ProbeSet 11739960_a_at) / Fold change (ACY-1035/veh), VPS36 (ProbeSet 11739960_a_at) / RFU SYPL1 (11715823_x_at) / Fold change /veh SYPL1 (11715823_x_at) / RFU IGFBP7 (11715501_s_at) / Fold change /veh IGFBP7 (11715501_s_at) / RFU REEP3 (11722064_at) / Fold change /veh REEP3 (11722064_at) / RFU IGLL1 (11728026_x_at) / Fold change /veh IGLL1 (11728026_x_at): dose or concentration left out as unconfirmed
Conditions: MV-4-11 cells, 48 hours

Nc1ccc(-c2cccs2)cc1NC(=O)c1ccc2c(c1)cc(C1CC1)n2CCN1CCOCC1 [ACY-1035]
RFU PIWIL2 (11732686_x_at): 9.71 RFU
